Data as given in ChEMBL document CHEMBL5465560, “Selectivity Literature for EUbOPEN Chemogenomic Library” (2024).

Legend:
[1] = target: Homeodomain-interacting protein kinase 3 (Homo sapiens, UniProt Q9H422); test: Selectivity interaction (KinomeScan (DiscoverX)) EUB0001049a HIPK3; conditions: at 1 µM
[2] = target: T1, Mitogen-activated protein kinase kinase kinase 7 (Homo sapiens) (UniProt O43318); test: Selectivity interaction (KinomeScan (DiscoverX)) EUB0000229b MAP3K7; conditions: at 10 µM
T1 sequence (whole entry): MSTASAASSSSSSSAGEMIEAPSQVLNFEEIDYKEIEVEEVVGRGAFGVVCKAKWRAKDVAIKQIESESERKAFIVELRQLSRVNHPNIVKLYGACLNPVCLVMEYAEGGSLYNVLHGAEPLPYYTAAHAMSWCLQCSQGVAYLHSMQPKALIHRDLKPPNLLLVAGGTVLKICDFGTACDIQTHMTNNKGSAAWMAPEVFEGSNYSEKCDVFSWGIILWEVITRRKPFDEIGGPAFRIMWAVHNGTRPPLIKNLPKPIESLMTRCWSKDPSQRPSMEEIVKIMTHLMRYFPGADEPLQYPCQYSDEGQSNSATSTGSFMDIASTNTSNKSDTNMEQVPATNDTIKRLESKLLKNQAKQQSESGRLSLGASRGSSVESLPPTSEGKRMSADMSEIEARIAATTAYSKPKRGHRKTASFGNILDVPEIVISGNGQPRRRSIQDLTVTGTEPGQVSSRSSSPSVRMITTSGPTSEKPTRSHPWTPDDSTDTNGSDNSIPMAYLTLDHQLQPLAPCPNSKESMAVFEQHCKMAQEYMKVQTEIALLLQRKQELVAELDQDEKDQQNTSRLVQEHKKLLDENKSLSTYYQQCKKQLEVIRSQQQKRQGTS

[3] = target: Bromodomain adjacent to zinc finger domain protein 2A (Homo sapiens, UniProt Q9UIF9); test: Selectivity interaction (Bromodomain panel (DSF asssay)) EUB0000270b BAZ2A
[4] = target: Homeodomain-interacting protein kinase 2 (Homo sapiens, UniProt Q9H2X6); test: Selectivity interaction (KinomeScan (DiscoverX)) EUB0000092b HIPK2; conditions: at 10 µM
[5] = target: MAP kinase-interacting serine/threonine-protein kinase 2 (Homo sapiens, UniProt Q9HBH9); test: Selectivity interaction (KinomeScan (DiscoverX)) EUB0000045b MKNK2
[6] = target: Mitogen-activated protein kinase 14 (Homo sapiens, UniProt Q16539); conditions: at 10 µM
[7] = target: T2, Serine/threonine-protein kinase Nek1 (Homo sapiens) (UniProt Q96PY6); conditions: at 10 µM
T2 sequence (whole entry): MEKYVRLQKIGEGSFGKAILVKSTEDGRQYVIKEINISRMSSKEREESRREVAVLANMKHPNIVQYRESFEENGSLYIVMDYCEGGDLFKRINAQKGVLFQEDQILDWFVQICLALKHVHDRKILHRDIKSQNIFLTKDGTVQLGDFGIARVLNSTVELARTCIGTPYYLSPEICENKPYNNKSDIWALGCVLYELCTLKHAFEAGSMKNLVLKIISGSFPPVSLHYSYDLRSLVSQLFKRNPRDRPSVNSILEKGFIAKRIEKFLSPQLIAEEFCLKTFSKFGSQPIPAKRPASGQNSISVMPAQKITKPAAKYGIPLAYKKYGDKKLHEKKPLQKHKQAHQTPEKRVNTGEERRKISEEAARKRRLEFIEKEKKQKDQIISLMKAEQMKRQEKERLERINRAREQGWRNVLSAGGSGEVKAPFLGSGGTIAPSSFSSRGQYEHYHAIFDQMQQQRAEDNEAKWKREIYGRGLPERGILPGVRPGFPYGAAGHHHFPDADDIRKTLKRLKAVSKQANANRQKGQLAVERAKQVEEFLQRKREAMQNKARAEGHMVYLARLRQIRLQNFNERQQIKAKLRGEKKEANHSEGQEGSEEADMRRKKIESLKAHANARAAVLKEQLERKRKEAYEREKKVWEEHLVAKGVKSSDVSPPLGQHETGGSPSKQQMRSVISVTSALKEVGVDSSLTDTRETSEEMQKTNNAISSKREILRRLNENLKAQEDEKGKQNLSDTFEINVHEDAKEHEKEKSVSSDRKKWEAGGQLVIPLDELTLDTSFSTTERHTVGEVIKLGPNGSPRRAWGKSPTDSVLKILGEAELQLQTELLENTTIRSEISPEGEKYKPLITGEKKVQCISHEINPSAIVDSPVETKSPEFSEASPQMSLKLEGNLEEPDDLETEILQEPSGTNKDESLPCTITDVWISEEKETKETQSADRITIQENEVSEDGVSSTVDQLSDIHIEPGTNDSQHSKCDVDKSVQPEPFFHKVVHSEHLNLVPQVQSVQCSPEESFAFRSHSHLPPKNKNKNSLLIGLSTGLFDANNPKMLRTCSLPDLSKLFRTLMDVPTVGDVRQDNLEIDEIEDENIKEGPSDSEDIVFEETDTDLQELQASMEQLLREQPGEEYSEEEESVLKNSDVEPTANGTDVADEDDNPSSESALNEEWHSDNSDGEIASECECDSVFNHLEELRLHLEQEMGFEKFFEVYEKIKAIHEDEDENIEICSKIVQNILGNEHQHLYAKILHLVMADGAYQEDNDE

[8] = target: T3, Tyrosine-protein kinase ITK/TSK (Homo sapiens) (UniProt Q08881); test: Selectivity interaction (KinomeScan (DiscoverX)) EUB0000655a ITK; conditions: at 10 µM
T3 sequence (whole entry): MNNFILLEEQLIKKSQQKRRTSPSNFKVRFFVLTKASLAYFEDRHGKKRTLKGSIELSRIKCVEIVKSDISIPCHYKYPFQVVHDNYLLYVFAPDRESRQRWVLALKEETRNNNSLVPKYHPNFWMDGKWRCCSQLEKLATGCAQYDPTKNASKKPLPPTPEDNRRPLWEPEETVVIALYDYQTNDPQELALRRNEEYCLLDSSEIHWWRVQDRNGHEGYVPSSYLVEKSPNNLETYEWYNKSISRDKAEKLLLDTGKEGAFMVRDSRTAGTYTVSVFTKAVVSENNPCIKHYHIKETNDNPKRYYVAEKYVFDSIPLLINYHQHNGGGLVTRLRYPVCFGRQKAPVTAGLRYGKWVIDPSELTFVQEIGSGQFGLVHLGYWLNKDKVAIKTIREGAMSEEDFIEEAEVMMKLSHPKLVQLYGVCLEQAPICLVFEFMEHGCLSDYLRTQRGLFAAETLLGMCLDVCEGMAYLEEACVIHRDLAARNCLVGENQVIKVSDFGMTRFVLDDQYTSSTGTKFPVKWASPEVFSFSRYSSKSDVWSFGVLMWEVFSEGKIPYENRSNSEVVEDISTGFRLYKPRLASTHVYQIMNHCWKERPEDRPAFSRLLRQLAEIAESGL

[9] = target: Mitogen-activated protein kinase 3 (Homo sapiens, UniProt P27361); test: Selectivity interaction (KinomeScan (DiscoverX)) EUB0000607a MAPK3; conditions: at 10 µM

MAP kinase-interacting serine/threonine-protein kinase 2, sequence (Q9HBH9 whole entry, looked up): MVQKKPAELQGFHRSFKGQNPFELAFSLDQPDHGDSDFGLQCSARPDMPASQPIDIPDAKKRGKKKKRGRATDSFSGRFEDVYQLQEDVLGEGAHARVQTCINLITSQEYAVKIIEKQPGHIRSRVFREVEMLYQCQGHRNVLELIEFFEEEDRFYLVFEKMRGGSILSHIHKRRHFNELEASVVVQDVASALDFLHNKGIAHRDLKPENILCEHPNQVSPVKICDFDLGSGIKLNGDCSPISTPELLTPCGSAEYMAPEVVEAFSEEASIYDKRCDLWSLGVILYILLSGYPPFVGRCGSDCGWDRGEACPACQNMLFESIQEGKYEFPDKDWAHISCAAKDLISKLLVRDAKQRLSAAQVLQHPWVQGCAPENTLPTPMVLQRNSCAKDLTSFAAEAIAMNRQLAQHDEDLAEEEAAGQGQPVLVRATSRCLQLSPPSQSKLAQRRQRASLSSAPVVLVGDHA
Homeodomain-interacting protein kinase 2, sequence (Q9H2X6 whole entry, looked up): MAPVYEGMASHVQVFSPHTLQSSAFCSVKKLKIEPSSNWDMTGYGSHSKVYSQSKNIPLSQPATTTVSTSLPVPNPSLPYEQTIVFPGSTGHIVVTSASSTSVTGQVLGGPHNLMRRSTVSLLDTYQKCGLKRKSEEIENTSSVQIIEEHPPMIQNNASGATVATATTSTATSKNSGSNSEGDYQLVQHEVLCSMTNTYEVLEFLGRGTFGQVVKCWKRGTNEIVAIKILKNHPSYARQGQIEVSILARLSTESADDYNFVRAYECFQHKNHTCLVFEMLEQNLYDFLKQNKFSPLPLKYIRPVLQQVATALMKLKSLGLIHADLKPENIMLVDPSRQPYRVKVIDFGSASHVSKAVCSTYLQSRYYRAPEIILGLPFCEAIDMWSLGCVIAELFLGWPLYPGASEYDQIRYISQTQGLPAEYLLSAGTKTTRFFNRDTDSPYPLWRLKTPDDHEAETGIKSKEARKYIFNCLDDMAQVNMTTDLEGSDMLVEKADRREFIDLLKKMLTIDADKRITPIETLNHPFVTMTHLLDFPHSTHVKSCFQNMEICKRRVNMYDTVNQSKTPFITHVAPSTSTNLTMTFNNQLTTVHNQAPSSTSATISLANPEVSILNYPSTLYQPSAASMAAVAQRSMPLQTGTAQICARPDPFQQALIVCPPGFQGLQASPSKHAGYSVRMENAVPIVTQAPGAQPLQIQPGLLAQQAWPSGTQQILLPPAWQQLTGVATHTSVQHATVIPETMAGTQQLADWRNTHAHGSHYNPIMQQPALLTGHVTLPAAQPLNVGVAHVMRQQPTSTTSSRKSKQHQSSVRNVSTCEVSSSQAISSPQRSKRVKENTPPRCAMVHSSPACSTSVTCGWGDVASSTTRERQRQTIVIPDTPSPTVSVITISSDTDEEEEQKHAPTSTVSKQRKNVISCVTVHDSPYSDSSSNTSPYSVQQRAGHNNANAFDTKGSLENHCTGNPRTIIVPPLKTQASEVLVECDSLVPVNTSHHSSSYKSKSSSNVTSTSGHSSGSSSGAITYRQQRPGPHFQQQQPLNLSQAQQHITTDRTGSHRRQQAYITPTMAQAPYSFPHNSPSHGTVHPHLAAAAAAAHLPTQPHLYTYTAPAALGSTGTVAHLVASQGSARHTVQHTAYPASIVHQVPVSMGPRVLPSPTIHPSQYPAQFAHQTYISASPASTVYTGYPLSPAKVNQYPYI
Homeodomain-interacting protein kinase 3, sequence (Q9H422 whole entry, looked up): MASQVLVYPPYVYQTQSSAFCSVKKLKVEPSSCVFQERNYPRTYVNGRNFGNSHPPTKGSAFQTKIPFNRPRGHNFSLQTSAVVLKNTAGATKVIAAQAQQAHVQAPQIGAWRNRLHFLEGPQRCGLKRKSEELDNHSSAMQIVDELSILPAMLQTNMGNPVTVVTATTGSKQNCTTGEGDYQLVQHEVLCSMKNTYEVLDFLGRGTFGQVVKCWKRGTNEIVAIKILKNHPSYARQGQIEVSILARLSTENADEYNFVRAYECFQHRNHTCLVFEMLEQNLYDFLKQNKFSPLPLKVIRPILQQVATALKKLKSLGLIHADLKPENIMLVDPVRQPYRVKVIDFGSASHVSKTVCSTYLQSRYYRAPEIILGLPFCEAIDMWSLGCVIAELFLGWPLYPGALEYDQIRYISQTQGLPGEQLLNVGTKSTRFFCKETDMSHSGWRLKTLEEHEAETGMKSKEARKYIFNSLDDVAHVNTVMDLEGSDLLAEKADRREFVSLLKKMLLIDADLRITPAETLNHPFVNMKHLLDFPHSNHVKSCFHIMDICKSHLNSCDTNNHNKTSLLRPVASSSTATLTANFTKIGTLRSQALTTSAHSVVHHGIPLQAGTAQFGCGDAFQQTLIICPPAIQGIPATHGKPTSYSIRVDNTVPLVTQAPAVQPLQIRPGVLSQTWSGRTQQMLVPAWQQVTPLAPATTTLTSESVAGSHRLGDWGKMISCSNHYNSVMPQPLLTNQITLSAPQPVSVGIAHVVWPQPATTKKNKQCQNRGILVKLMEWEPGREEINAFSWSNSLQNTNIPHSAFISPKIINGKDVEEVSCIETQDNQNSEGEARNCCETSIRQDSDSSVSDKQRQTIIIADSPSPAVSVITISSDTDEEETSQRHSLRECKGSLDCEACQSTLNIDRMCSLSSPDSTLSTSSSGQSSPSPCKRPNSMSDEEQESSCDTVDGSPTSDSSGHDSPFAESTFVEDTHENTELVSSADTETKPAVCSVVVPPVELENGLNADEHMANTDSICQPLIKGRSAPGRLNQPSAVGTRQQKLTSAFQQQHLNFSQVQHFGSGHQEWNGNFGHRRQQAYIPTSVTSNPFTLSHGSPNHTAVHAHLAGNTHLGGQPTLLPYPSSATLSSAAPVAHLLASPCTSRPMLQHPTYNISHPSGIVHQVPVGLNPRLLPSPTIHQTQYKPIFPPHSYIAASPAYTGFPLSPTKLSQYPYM
Bromodomain adjacent to zinc finger domain protein 2A, sequence (Q9UIF9 whole entry, the tested form may be a part): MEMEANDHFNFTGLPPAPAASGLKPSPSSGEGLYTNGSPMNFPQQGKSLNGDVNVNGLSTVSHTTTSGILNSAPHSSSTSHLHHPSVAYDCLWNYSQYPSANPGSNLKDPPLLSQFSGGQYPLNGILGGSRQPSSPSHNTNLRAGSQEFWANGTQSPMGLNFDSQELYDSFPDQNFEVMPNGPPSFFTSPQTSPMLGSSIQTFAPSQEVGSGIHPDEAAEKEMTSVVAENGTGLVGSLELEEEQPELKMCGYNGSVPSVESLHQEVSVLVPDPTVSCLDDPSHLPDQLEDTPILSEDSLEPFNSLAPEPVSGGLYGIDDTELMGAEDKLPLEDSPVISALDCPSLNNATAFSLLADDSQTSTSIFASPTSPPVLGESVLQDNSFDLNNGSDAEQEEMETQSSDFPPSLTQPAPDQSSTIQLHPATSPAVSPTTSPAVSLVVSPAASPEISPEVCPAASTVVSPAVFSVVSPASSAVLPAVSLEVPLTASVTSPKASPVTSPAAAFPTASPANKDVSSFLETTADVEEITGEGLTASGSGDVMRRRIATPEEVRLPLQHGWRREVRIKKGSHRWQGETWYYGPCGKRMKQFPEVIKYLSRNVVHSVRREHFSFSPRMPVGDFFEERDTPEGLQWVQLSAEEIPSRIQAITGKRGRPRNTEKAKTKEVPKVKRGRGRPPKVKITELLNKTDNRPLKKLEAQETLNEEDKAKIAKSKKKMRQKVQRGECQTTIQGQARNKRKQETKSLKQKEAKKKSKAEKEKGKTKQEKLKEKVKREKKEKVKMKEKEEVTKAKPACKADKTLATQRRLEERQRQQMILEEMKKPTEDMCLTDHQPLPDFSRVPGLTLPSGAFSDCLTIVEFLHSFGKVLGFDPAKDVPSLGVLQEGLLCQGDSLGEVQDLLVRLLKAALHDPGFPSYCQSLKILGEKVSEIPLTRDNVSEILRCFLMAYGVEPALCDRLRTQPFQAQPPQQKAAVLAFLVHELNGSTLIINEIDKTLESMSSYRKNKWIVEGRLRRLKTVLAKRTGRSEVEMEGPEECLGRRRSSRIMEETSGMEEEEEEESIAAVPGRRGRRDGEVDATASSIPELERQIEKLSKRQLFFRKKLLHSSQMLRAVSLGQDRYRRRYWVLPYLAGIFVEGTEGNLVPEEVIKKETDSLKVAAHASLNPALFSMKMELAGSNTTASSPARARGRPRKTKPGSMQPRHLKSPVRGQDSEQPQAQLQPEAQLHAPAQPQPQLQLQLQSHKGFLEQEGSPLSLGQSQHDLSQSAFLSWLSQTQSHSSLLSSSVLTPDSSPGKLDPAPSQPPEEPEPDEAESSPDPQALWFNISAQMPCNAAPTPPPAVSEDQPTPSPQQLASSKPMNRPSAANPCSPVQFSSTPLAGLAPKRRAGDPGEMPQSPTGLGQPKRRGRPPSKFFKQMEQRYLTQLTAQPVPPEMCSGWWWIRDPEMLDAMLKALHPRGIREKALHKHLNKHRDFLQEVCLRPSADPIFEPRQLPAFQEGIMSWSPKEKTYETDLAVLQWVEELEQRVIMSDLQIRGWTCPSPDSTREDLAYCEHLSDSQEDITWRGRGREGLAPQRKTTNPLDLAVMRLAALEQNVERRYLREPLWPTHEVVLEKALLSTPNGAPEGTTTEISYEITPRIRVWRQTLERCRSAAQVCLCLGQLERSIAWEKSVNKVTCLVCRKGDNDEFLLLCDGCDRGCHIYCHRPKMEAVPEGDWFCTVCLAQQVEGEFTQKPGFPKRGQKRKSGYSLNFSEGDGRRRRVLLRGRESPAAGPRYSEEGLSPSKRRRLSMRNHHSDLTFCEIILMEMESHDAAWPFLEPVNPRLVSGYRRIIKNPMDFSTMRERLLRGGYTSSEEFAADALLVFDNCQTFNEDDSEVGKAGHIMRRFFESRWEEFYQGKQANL

## COc1cc(Nc2nc(C)cc(-c3cnn4nc(OC)ccc34)n2)cc(C(F)(F)F)c1
[1]
  % of control: 95%

## COc1cc(N(C)c2ccnc3ccc(C(F)(F)F)cc23)cc(OC)c1OC
[2]
  % binding: 80%

## Cc1cc(CN)cc(C)c1-c1ncn(C)c1-c1cncn1C
[3]
  dTM: -1.5 K

## CCC(=O)N1CCN(c2ccc(-n3c(=O)ccc4cnc5ccc(-c6cnc7ccccc7c6)cc5c43)cc2C(F)(F)F)CC1
[4]
  % of control: 58%

## C=CC(=O)Nc1cc(-n2c(=O)ccc3cnc4ccc(-c5ccc(NS(C)(=O)=O)cc5)cc4c32)ccc1C
[5]; at 1 µM
  % of control: 100%
[5]; at 10 µM
  % of control: 52%

## O[C@H]1CC[C@H](Nc2ncc3nc(Nc4c(F)cc(F)cc4F)n([C@H]4CCOC4)c3n2)CC1
[6]
  % of control: 3.4%

## Cc1cc([C@@H](C)Nc2ccccc2C(=O)O)c2nc(N3CCOCC3)cc(=O)n2c1 [AZD-6482]
[7]
  % of control: 85%

## CN(C)CCOc1ccc(-c2nc(-c3ccncc3)c(-c3ccc4c(c3)CC/C4=N\O)[nH]2)cc1
[8]
  % of control: 98%

## CNC(=O)Nc1ccc(-c2nc(N3CC4CCC(C3)O4)c3cnn(C4CCC5(CC4)OCCO5)c3n2)cc1
[9]
  % of control: 97%
